These results are taken from article PMC4521150, “Discovery of Novel Inhibitors and Fluorescent Probe Targeting NAMPT” (Scientific Reports, 2015).

Where two headings read alike, the source gives them in different places.

The target in one data set is T1, recombinant human NAMPT (Homo sapiens, UniProt P43490).
T1 construct: His tag (N); made in house; host or cells: E. coli BL21-CodonPlus (DE3)-RIL, pET21a+ vector
Put plainly: HTS / fixed-concentration NAMPT activity screen (fluorometric). The data set is classed as biochemical. The settings on record: 20 μM compound; analogues of the 46 non-fluorescent inhibitors.

The subject of a further data set is HepG2 cells. Put plainly: Cell viability assay (CCK-8) in HepG2 cells. To be noted: for IC50: HepG2, 48 h, CCK-8, read-out: IC50 for inhibitory effect on HepG2 cell viability. The data set is classed as cell-based, human. The protocol: (§1) Cell viability was determined by our previous method[27] using the Cell Counting Kit-8 (CCK-8, Dojindo, Japan). In human hepatocellular carcinoma cell line HepG2, cells were seeded in 96-well plate and starved for over 12 h with serum-free DMEM at 60~70% confluency, then treated with compounds or vehicle for 48 h. To determine the IC50 values of inhibitors, compounds with various concentrations were added into the 96-well plate. 10 μl CCK-8 solution was added to the culture medium and incubated at 37 °C for 1 h. The absorbance at 450 nm (A450) was detected by a plate reader. Each experiment was carried out in triplicate in three replicate wells. The IC50 values were determined by non-linear fitting of the concentration-dependent curves with the four-parameter IC50 logistic equation.

In another data set the test system is Huh-7 cell. Put plainly: Cell viability in Huh-7 cells. The data set is classed as cell-based, human. To be noted: Huh-7, Figure S2. The source says:
However, IC50 values for other 5 fluorescent compounds were able to be determined (Supplemental dataset S2). We then measured the fluorescence of all 9 fluorescent compounds at a series of different concentrations.

For data set [1], the system named is primary mouse hepatocytes. Put plainly: Cell viability of primary hepatocytes from normal mice. In kind it is cell-based. The settings on record: 30 μM. The protocol:
as §1
Hepatocytes were isolated from mouse liver by the two-step collagenase perfusion method. […] For imaging experiment, 1 × 10^5 cells were plated in a 35-mm glass bottom dishes or 5 × 10^4 were plated in 48-well plate for cell viability assay in DMEM supplemented with 10% FBS and antibiotics, and kept under an atmosphere of 95% air and 5% CO2 at 37 °C.

A further data set concerns HepG2 NAD levels. Briefly: Cellular NAD measurement (enzymatic cycling assay) in HepG2 cells. The data set is classed as cell-based, human. The protocol: Cellular level of NAD was measured by spectrophotometric enzymatic cycling assay, as described previously. Briefly, cells were seeded in 96-well plate and starved for over 12 h with serum-free DMEM at 60~70% confluency, following by treatment with compounds or vehicle for 24 h. Cells were lysed with 50 μl of 1M HClO4 on ice for 30 min. The lysates were cleared by centrifuging at 4 °C at 18,000 × g for 5 min, and cleared lysates (40 μl) were neutralized by adding 1M K2CO3 (16 μl) and incubation on ice for 20 min. After centrifuging for 10 min, 10 μl of supernatant were mixed with reaction buffer [50 mM Tris-HCl (pH 7.5), 3% ethanol, 1.66 mM PES (phenazineethosulfate), 0.42 mM MTT (3-(4,5-dimethylthiazolyl-2)-2,5-diphenyltetrazolium bromide), 90 μg/ml ADH] in a total volume of 100 ul, and incubated at 37 °C for 40 min. The absorbance at 570 nm was determined. A blank measurement without ADH was also carried out. Each experiment was carried out in triplicate in three replicate wells

T1 sequence (P43490 whole entry): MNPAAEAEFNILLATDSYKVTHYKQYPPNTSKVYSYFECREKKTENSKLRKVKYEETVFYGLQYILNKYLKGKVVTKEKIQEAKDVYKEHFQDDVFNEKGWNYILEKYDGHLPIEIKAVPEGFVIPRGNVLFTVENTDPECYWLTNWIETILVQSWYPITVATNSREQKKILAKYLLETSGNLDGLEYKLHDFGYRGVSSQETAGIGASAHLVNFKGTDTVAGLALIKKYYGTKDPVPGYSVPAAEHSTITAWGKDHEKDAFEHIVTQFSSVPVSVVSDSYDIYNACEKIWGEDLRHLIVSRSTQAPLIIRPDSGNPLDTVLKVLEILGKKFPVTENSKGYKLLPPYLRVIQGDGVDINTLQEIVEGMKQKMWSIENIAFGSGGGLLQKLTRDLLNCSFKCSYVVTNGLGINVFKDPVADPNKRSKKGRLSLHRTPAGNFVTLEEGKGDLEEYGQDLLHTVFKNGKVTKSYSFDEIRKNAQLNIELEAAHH

As to `CCCn1c(=O)c(-c2ccc(C(=O)NCc3cccnc3)cc2)nc2ccccc21` [M049-0244], the “NAMPT inhibition activity at 20 μM” value at recombinant human NAMPT was “Yes”. Further, the “Rescue of cell viability by exogenous NMN” value in the data set on HepG2 cells (HepG2, 3 μM compound, NMN at 300 μM) is listed as “totally rescued”. In addition, the 50% inhibitory concentration (IC50) with HepG2 cells was approximately 2000 nM; with HepG2 cells (Homo sapiens), 1950 ± 170 nM; with HepG2 NAD levels (Homo sapiens, HepG2, 24 hours treatment, read-out: IC50 for reducing NAD level), 17.6 nM. In the data set on HepG2 cells (two concentrations (1 and 10 μM)), the “Effect on HepG2 cell viability at 1 and 10 μM” value is reported as “significant inhibition on HepG2 cell viability in a dose dependent manner”. Besides, in the data set with Huh-7 cell, the “Effect on Huh-7 cell viability” value is reported as “Inhibitory effects”. The “Inhibition of normal hepatocytes viability” value in data set [1] is ~ 20%. In the data set on HepG2 NAD levels (HepG2, 1 μM, 24 hours), the “Decrease of cellular NAD level” value was ~ 80%.

Broadly, the IC50 is the point on the concentration scale where inhibition reaches its midpoint.
